Data from US20230098637A1, “PROGNOSTIC PATHWAYS FOR HIGH RISK SEPSIS PATIENTS” (InnoSIGN B.V., priority 2020, published 2023).
“Also recorded” adds a separate entry of the source.

Tests used:
Format in all cases: cell-based
[1] = system: AR cellular signaling pathway; assay: AR inhibitor experiment in LPS-stimulated monocytes (THP1), AR pathway activity; conditions: THP1 monocytes cultured 24 hours with or without LPS, then with or without DHT
Experimental: (§1) FIG. 35 Schematic overview of AR inhibitor experiment. Depicts the experimental setup to determine if AR inhibitors can be used to mitigate the effect of LPS on monocytes (THP1 cells). In brief, monocyte cells (THP1) are cultured for 24 hours with or without LPS, after which the medium is changed and both conditions are subsequently cultured with or without DHT. Both LPS and DHT are anticipated to activate the AR cellular signaling pathway. In a parallel experiment, THP1 cells are first cultured for 24 hours with LPS, after which the medium is changed and the cells are cultured with one of ARCC-4, ARD-266, A-458 and bicalutamide.
as §1, with “describes” for “Schematic overview of AR inhibitor experiment. Depicts”, “set-up used.” for “setup to determine if AR inhibitors can be used to mitigate the effect of LPS on monocytes (THP1 cells).”
(§2) All experimental conditions were subjected to cellular signaling pathways analysis.

[2] = system: ER cellular signaling pathway; assay: AR inhibitor experiment in LPS-stimulated monocytes (THP1), ER pathway activity; conditions: THP1 monocytes cultured 24 hours with or without LPS, then with or without DHT
Experimental: as §1
as §1, with “describes” for “Schematic overview of AR inhibitor experiment. Depicts”, “set-up used.” for “setup to determine if AR inhibitors can be used to mitigate the effect of LPS on monocytes (THP1 cells).”
as §2

[3] = system: HH (Hedgehog) cellular signaling pathway; assay: AR inhibitor experiment in LPS-stimulated monocytes (THP1), HH pathway activity; conditions: THP1 monocytes cultured 24 hours with or without LPS, then with or without DHT
Experimental: as §1
as §1, with “describes” for “Schematic overview of AR inhibitor experiment. Depicts”, “set-up used.” for “setup to determine if AR inhibitors can be used to mitigate the effect of LPS on monocytes (THP1 cells).”
as §2

[4] = system: TGFbeta cellular signaling pathway; assay: AR inhibitor experiment in LPS-stimulated monocytes (THP1), TGFbeta pathway activity; conditions: THP1 monocytes cultured 24 hours with or without LPS, then with or without DHT
Experimental: as §1
as §1, with “describes” for “Schematic overview of AR inhibitor experiment. Depicts”, “set-up used.” for “setup to determine if AR inhibitors can be used to mitigate the effect of LPS on monocytes (THP1 cells).”
as §2

AR pathway = assay: LPS stimulation of THP-1 cells, AR pathway activity (qPCR OncoSignal); conditions: LPS from E. coli 10, 50, 100 ng/ml, 24 hours, vs control
Experimental: (§3) To study the inflammation process we stimulated the monocytic THP-1 cells (ATCC® TIB-202™) using 3 different concentrations of LPS originated from E. coli ([…], 10 ng/ml, 50 ng/ml and 100 ng/ml) into culture medium (DMEM, supplemented with 10% FBS, 1% glutamax and 1% pen strep at 37° C. 5% CO2.) of THP-1 for 24 hours. After stimulation cells were harvested and RNA was extracted using the RNeasy mini kit (Qiagen, 74104). qPCR was performed using the Philips Research OncoSignal platform. […] The activation of the AR and TGFBeta pathways was also seen in sepsis samples confirms the role of these pathways in inflammation.

FOXO pathway = assay: LPS stimulation of THP-1 cells, FOXO pathway activity; conditions: LPS from E. coli 10, 50, 100 ng/ml, 24 hours, vs control
Experimental: as §3

TGFBeta pathway = assay: LPS stimulation of THP-1 cells, TGFBeta pathway activity; conditions: LPS from E. coli 10, 50, 100 ng/ml, 24 hours, vs control
Experimental: as §3

WNT pathway = assay: LPS stimulation of THP-1 cells, WNT pathway activity; conditions: LPS from E. coli 10, 50, 100 ng/ml, 24 hours, vs control
Experimental: as §3

## C[C@]12CCC(=O)C[C@@H]1CC[C@@H]1[C@@H]2CC[C@]2(C)[C@@H](O)CC[C@@H]12 [DHT]
[1]
  AR cellular signaling pathway activity: increase
[2]
  ER cellular signaling pathway activity: not substantially affected
[3]
  HH cellular signaling pathway activity: not substantially affected
[4]
  TGFbeta cellular signaling pathway activity: did not increase

## lipopolysaccharide [LPS]
AR pathway
  AR pathway activity: increased
FOXO pathway
  FOXO pathway activity: increased
TGFBeta pathway
  TGFBeta pathway activity: increased
WNT pathway
  WNT pathway activity: increased
[1]
  AR cellular signaling pathway activity: able to stimulate; also recorded: increase
[2]
  ER cellular signaling pathway activity: not substantially affected
[3]
  HH cellular signaling pathway activity: not substantially affected
[4]
  TGFbeta cellular signaling pathway activity: increased
